Reference: paper PMC7463460, “Structure and Antiparasitic Activity Relationship of Alkylphosphocholine Analogues against Leishmania donovani” (Microorganisms, 2020)
Where “and” joins values, the source holds several entries; their conditions need not be identical. Equal values may be shown once. Read-outs that look alike come from different tables or passages of the source.

What was measured:
[1] = Cytotoxicity against uninfected macrophages (alamar blue); assay type: cell-based, BALB/c mice; conditions: BALB/c, mouse, read-out: Macrophage mean IC50 (CC50) (converted)
Protocol: (§1) The effect of drug treatment on parasite survival was determined by calculating the mean suppression in the light emitted from the drug-treated experimental sample compared to the mean control value and used to calculate the IC50 using Grafit® software (version 5.0, Erithacus Software, East Grinstead, West Sussex, UK). The effect of drug alone on the viability of uninfected macrophages was determined using the same experimental protocol above, but cell viability was determined using an alamar blue colorimetric assay. At the end of the incubation period, cells’ 10 µL resazurin solution (0.02% w/v) was added to control and drug treated cells and the absorbance of samples was read at 575 and 595 nm. The effect of drug treatment on cell survival, which correlates with the magnitude of dye reduction, was expressed as percentage viability (or alamar blue reduction) and determined using the formula provided in the manufacturer’s protocol % alamar blue reduction=(εoxλ)(Aλ1)−(εoxλ1)(Aλ2)/(εredλ1)(A^′λ2)−(εredλ2)(A^′λ1)x100
In the formula, ελ1 and ελ2 are constants representing the molar extinction coefficient of alamar blue at 575 and 595 nm, respectively, in the oxidized (εox) and reduced (εred) forms. Aλ1, Aλ2 and A’λ1, A’λ2 represent absorbance of test and negative control wells at 575 and 595 nm, respectively. The values of % alamar blue reduction (or % viability) were corrected for background values of negative controls containing medium without cells. Percent viability values were used to calculate the IC50 using Grafit® software (version 5.0).

[2] = test system: L. donovani 282/4 (Sb-sensitive) intracellular amastigotes; assay: Intracellular amastigote assay, Sb-sensitive strain 282/4; assay type: cell-based, Leishmania donovani; conditions: strain 282/4, Sb-sensitive; for IC50: Leishmania donovani; for Selectivity Index (SI50): macrophage CC50 / amastigote IC50
Source text: (§2) L. donovani cloned strains with different Sb susceptibility backgrounds were derived from isolates obtained from VL patients at the B.P. Koirala Institute of Health Sciences, Dharan, Nepal: MHOM/NP/02/BPK282/0cl4 (Sb sensitive, Sb-S). MHOM/NP/02/BPK087/0cl11 (Sb intermediate, Sb-I) and MHOM/NP/02/BPK275/0cl18 (Sb resistance, Sb-R [13]). In addition, Milt-resistant parasites raised against these three Sb sensitivity backgrounds and the Sb-sensitive strain (MHOM/ET/67:LV82) was also used in studies. Luciferase expressing promastigotes for the LV82 and Nepalese strains were prepared using previously published methods and the integrative construct (a gift from Dr D.F. Smith), designated pGL1313, contained pSSU-int fragments to facilitate integration into the ribosomal RNA locus of Leishmania.
In the macrophage studies, the method described in previous studies was used as follows. […] It is possible that intracellular macrophage parasites could have been at different developmental stages at 24 h post-infection. […] Therefore, we assumed that the effect of compounds on the amastigote stage rather than the promastigotes stage was determined in in vitro macrophage studies.
The plate was incubated for a further 24 h, the medium removed, and each well washed with PBS to eliminate non-internalized parasites, which were monitored microscopically. […] Wells with macrophage and with no drug or promastigotes added were used in control experiments.
(§3) Luciferin solution (1 µg/mL in 20 µL medium without FCS) was added to the appropriate wells of the 96-well plate at the end of the experiment and the amount of light emitted/well was measured using a luminometer (Biotek Synergy HT, relative light units) using a wavelength/bandwidth of 440/40 nm, or IVIS® imaging (Spectrum Living Image system®, total flux, photons/sec).
as §1, with “At the end of the incubation period, cells’ 10 µL resazurin solution (0.02% w/v) was added to control and drug treated cells and the absorbance of samples was read at 575 and 595 nm.” left out

[3] = test system: L. donovani 275/18 (Sb-resistant) promastigotes; assay: Promastigote luciferase assay, Sb-resistant strain 275/18; assay type: cell-based, Leishmania donovani; conditions: for IC50: Leishmania donovani, read-out: Mean IC50 Promastigotes; for Promast: Amast Ratio: strain 275/18, Sb-resistant; for Cross-Resistance Index (CRI50) Promast: strain 275/18, Sb-resistant vs Sb-S
Source text: as §2
The anti-leishmanial activity of APC against L. donovani luciferase-expressing promastigotes was determined by adding of the appropriate 100 µL parasite line (10^6 cells/mL) to the wells of a 96-well plate and adding 100 µL medium alone (controls) or 100 µL of APC compound (0.01 µg/mL–6.25 µg/mL, n = 3/treatment). […].
as §3, §1
Cross resistance (CRI50) indexes were determined as Cross selectivity indices (CRI)=mean IC50 value for the relevant drug−resistant strain i.e., Sb−I or Sb−R / mean IC50 value drug−sensitive strain Sb−S

[4] = test system: L. donovani 282/4 Milt-Sb-sensitive intracellular amastigotes; assay: Intracellular amastigote assay, Milt-resistant 282/4; assay type: cell-based, Leishmania donovani; conditions: for IC50: Leishmania donovani, read-out: Mean IC50 Value Amastigotes; for Selectivity Index (SI50): strain 282/4, Milt-Sb-sensitive, macrophage CC50 / amastigote IC50
Source text: as §2
In the macrophage studies, the method described in previous studies was used as follows. Briefly, bone-marrow-derived BALB/c macrophages (1–2 × 10^5) in 100 µL complete RPMI 1640 medium were added to the wells of a 96 well plate and left to adhere for 24 h at 37 °C, 5% CO₂/95% air. The medium was removed and 100 µL of the appropriate L. donovani luciferase-expressing promastigotes line (parasite: host cell ratio 1:10, 1:20 or 1:40) was added to each well, the ratio used reflected the infectivity of the strain and ensured that control data gave a bioluminescent signal within the same range. […] The variability in infectivity complicates strain to strain comparisons, but we decided to focus on achieving good infection levels in controls so that the effect of drug treatment could be determined. It is possible that intracellular macrophage parasites could have been at different developmental stages at 24 h post-infection. […] Therefore, we assumed that the effect of compounds on the amastigote stage rather than the promastigotes stage was determined in in vitro macrophage studies.
The plate was incubated for a further 24 h, the medium removed, and each well washed with PBS to eliminate non-internalized parasites, which were monitored microscopically. […]
as §3, §1

[5] = parameters: method as in Anatrace product description sheet; conditions: critical micellar concentration; ref Anatrace product description sheet; cited from earlier work
[6] = uninfected bone-marrow-derived macrophages

| SMILES | IC50 at 3 days [1, 6] | IC50 [2] | Selectivity Index (SI50) [2] | IC50 [3] | Promast: Amast Ratio [3] | Cross-Resistance Index (CRI50) Promast [3] | IC50 [4] | Selectivity Index (SI50) [4] | CMC [5] [µg/mL] | IC50 at 3 days [1] |
| --- | --- | --- | --- | --- | --- | --- | --- | --- | --- | --- |
| CCCCCCCCCCCCOP(=O)([O-])OCC[N+](C)(C)C [APC12, dodecylphosphocholine] | 35.4 µg/mL and 101 µM | 0.26 µg/mL and 740 nM | 136.08 | 0.49 µg/mL and 1.39 µM | 2.10 | 0.89 | 0.08 µg/mL and 230 nM | 442.25 | 351.50 |  |
| CCCCCCCCCCCCCCOP(=O)([O-])OCC[N+](C)(C)C [APC14, tetradecylphosphocholine] | 40.9 µg/mL and 108 µM | 0.12 µg/mL and 320 nM | 340.75 | 0.37 µg/mL and 970 nM | 1.31 | 0.84 | > 1.73 µg/mL and > 4.56 µM | >23.64 | 45.54 |  |
| CCCCCCCCCCCCCCCCOP(=O)([O-])OCC[N+](C)(C)C [APC16, hexadecylphosphocholine, reference compound] |  | 0.31 µg/mL and 760 nM |  | 1.26 µg/mL and 3.09 µM | 2.49 |  | > 1.61 µg/mL and > 3.95 µM |  | 0.41 | 5.08 µg/mL and 12.5 µM |
